Data on one molecule can be found in patent US20210147811A1, “METHODS FOR IN VITRO EXPANSION OF ADULT TISSUE STEM CELLS” (CEDARS-SINAI MEDICAL CENTER, priority 2018, published 2021).

Test [1] deals with freshly isolated alveolar type II cells. Description: Organoid culture of lineage labelled murine alveolar type II cells. It counts as cell-based. The conditions noted are these: GFP+ alveolar type II cells, in presence of SB431542. The text has this: FIG. 15. Effect of ROCK and P53 inhibition on lineage labelled murine alveolar type II cells. GFP^+ alveolar type II cells were isolated from tamoxifen treated SPC-CreER/ROSARG mice. Addition of both ROCKi and Pifithrin alpha (in presence of SB431542) increases the colony forming efficiency of freshly isolated alveolar typeII cells (regional stem cells which maintain the epithelium of the air sacs in the lung). The effect is synergistic for their combined use, similar to that seen for total distal epithelial cells in the previous figures.
(§1) ROCKi increases the colony forming efficiency when murine distal total epithelial cells (isolated from the lung without trachea) are pre-cultured on collagen coated plates for 24 hrs prior after initial isolation. The effect on size is more pronounced when cells are precultured for 24 hrs on collagen coated plates after initial isolation. The drop in CFE in the Pifithrin alpha+ROCKi group is likely due space and nutrient availability constraints due to the large number of organoids per well. Addition of both ROCKi and Pifithrin alpha (in presence of SB431542) increases the colony forming efficiency of freshly isolated alveolar type II cells (regional stem cells which maintain the epithelium of the air sacs in the lung). The effect is synergistic for their combined use, similar to that seen for total distal epithelial cells in the previous figures.

The subject of test [2] is murine pre-cultured distal total epithelial cells. Briefly: 3D organoid culture of murine distal total epithelial cells pre-cultured 24 hrs on collagen coated plates. It counts as cell-based. The conditions noted are these: pre-cultured on collagen coated plates for 24 hrs after isolation, +SB431542.
Source text: FIG. 4. Effect of pre-culturing—Day 3. Pre-culturing cells on collagen coated plates for 24 hrs after initial isolation increases the rate of organoid formation, with organoids being visible as early as day 3 in culture.
FIG. 5. Effect of pre-culturing—Day 8. Addition of Pifithrin α causes an increase in organoids size, while addition of ROCKi causes an increase in the colony forming efficiency. This effect is more pronounced when cells are pre-cultured for 24 hrs on collagen coated plates after initial isolation.
FIG. 14. Effect of inhibitors on murine pre-cultured distal total epithelial cells in (+SB431542). Addition Pifithrin alpha increases organoid size while addition of ROCKi increases the colony forming efficiency when murine distal total epithelial cells (isolated from the lung without trachea) are pre-cultured on collagen coated plates for 24 hrs prior after initial isolation. The effect on size is more pronounced when cells are precultured for 24 hrs on collagen coated plates after initial isolation. The drop in CFE in the Pifithrin alpha+ROCKi group is likely due space and nutrient availability constraints due to the large number of organoids per well.
as §1

Another test has as its target T1, p53 (Homo sapiens, UniProt P04637).
T1 construct: host or cells: neuronal cells (not further described)
The note with it: cited from earlier work.

The subject of test [3] is freshly isolated club cells. Briefly: Organoid culture of lineage labelled murine club cells. It counts as cell-based. The note with it: GFP+ club cells, in presence of SB431542. An excerpt: FIG. 17. Effect of ROCK and P53 inhibition on lineage labelled murine club cells. GFP^+ club cells were isolated from tamoxifen treated Scgb1a1-CreER/ROSARG mice. Addition of ROCKi (in presence of SB431542) increases the colony forming efficiency of freshly isolated club cells (regional stem cells which maintain certain cell types in the bronchiolar epithelium) whereas addition of Pifithrin alpha (in presence of SB431542) increases the size of Scgb1a1-derived organoids.
Distal progenitor cells were cultured as 3D organoids for 14 days in presence of Pifithrin-alpha, ROCKi and SB431542 followed by culture for 7 days in media without all three inhibitors. […] Addition of ROCKi (in presence of SB431542) increases the colony forming efficiency of freshly isolated club cells (regional stem cells which maintain certain cell types in the bronchiolar epithelium) whereas addition of Pifithrin alpha (in presence of SB431542) increases the size of Scgb1a1-derived organoids. Addition of both ROCKi (in presence of SB431542) increases the colony forming efficiency of freshly isolated murine proximal total epithelial cells (isolated from the murine trachea).

T1 sequence (P04637 whole entry, species assumed): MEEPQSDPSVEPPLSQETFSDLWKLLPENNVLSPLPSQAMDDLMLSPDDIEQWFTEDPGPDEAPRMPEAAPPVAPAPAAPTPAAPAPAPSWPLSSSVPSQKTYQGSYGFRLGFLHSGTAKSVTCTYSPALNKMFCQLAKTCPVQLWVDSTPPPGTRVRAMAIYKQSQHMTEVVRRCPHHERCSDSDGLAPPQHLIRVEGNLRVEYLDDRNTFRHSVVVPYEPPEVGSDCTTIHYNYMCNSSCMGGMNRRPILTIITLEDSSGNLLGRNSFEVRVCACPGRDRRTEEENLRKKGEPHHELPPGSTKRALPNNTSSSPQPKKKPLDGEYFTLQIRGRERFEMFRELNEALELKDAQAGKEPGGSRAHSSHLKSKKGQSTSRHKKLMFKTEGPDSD

For `Cc1ccc(C(=O)Cn2c3c(sc2=N)CCCC3)cc1` [Pifithrin α], in test [1], the colony forming efficiency entry is on record as “increases”. In addition, the “size of the alveolar organoids” value in test [1] is “does not increase”. The organoid size entry in test [2] is on record as “increase”; in test [2] (listed as Pifithrin alpha), “increases”. The “protection against p53-induced neuronal cell death” value on p53 is listed as “protection”. In test [3], the “size of Scgb1a1-derived organoids” value is reported as “increases”.
